This note sets out measurements from patent US20250332112A1, “IONIZABLE CATIONIC LIPIDS FOR LIPID NANOPARTICLES” (GENEVANT SCIENCES GMBH, priority 2022, published 2025).

Structures are written as SMILES.

Data set [1] deals with luciferase activity in the liver. Description: Luciferase activity in liver after intravenous luciferase mRNA LNP. The format is in vivo. As to conditions: 0.5 mg/kg IV, 6 h post-IV administration, BALB/c mice (n = 4). On the procedure: Frozen aliquots of liver were thawed and homogenized in 1 mL of 1×CCLR (Cell Culture Lysis Reagent) using a FastPrep® homogenizer. The homogenate was then centrifuged at 16,000 RPM for 10 minutes at 4° C. Twenty (20) μL of the supernatant was loaded into a 96-well white plate and luminescence measured following addition of luciferase reagent (Promega Luciferase Assay System). Luciferase activity was determined by comparing luminescence of the homogenized samples to luciferase protein standards. To account for any quenching of luminescence by components in the liver homogenate, luciferase was added to the liver homogenates of untreated animals and the resulting luminescence measured. The resulting quench factor was applied to all samples to obtain the corrected luciferase activity, and normalized per unit mass of tissue analyzed.

A short description of data set [2]: Particle characteristics of LNPs containing luciferase mRNA and novel ionizable lipids. The format is physicochemical. The following applies: luciferase mRNA LNP 1.6:54.6:32.8:10.9. As to the method:
The lipid solution contains 4 components: a PEG-conjugated lipid, an ionizable lipid, cholesterol, and a phospholipid (e.g., DSPC). Lipid stocks were prepared using the lipid identities and molar ratios as described, to achieve a total concentration of ˜7 mg/mL in 100% ethanol. Firefly luciferase mRNA (TriLink Biotechnologies, L-7202) or ornithine transcarbamylase (OTC) mRNA (TriLink Biotechnologies, custom designed) was diluted in acetate, pH 5 buffer and nuclease free water to achieve a target concentration of 0.366 mg/mL mRNA in 100 mM acetate, pH 5. Equal volumes of the lipid and nucleic acid solutions were blended at a flow rate of 400 mL/min through a T-connector, and diluted with ˜4 volumes of PBS, pH 7.4. Formulations were placed in Slide-A-Lyzer dialysis units (MWCO 10,000) and dialyzed overnight against 10 mM Tris, 500 mM NaCl, pH 8 buffer. Following dialysis, the formulations were concentrated to ˜0.6 mg/mL using VivaSpin concentrator units (MWCO 100,000) and dialyzed overnight against 5 mM Tris, 10% sucrose, pH 8 buffer. Formulations were filtered through a 0.2 μm syringe filter (PES membrane). Nucleic acid concentration was determined by the RiboGreen assay. Particle size and polydispersity were determined using a Malvern Nano Series Zetasizer.
LNP formulations containing novel ionizable lipids all produced stable particles with high encapsulation efficiency (Tables 1-7).

`CCCCCCCCCCC(CCCCCCC(=O)OCC(CCCCCC)CCCCCCCC)N(CCCCCCCCCC)C(=O)CCCN(C)C` (centres unmarked) [Compound 1, 2-Hexyldecyl 8-(N-decyl-4-(dimethylamino)butanamido)-octadecanoate]: the “Luc Activity” value in data set [1] (Table 12) amounted to 1.70E+08 pg/g liver. Moreover, in data set [2] (Table 5), the “Final Product % EE” value is recorded as 99%, the “Final Product PDI” value came out at 0.04 and the “Final Product Z-avg” value worked out at 77 nm.
As for `CCCCCCCCCCC(CCCCC(=O)OCC(CCCCCC)CCCCCCCC)N(CCCCCCCCCC)C(=O)CCCN(C)C` (centres unmarked) [Compound 2, 2-Hexyldecyl 6-(N-decyl-4-(dimethylamino)butanamido)hexadecanoate], the “Luc Activity” value in data set [1] (Table 12) worked out at 7.11E+07 pg/g liver. Besides, in data set [2] (Table 5), the “Final Product % EE” value is reported as 96%, the “Final Product PDI” value worked out at 0.08 and the “Final Product Z-avg” value is reported as 81 nm.
On to `CCCCCCCCCC(CC(=O)OCC(CCCCCC)CCCCCCCC)N(CCCN(C)C)C(=O)CCCCC(=O)OCC(CCCC)CCCCCC` (centres unmarked) [Compound 21, 2-hexyldecyl 3-{6-[(2-butyloctyl)oxy]-N-[3-(dimethylamino)propyl]-6-oxohexanamido}dodecanoate], for which the “Luc Activity” value in data set [1] (Table 9) came to 4.58E+07 pg/g liver. Besides, in data set [2] (Table 2), the “Final Product % EE” value was determined as 98%, the “Final Product PDI” value is given as “(0.03)” and the “Final Product Z-avg” value is on record as 77 nm.
In the case of `CCCCCCCCCC(CC(=O)OCC(CCCCCC)CCCCCCCC)N(CCCN(C)C)C(=O)CCCCCCC(=O)OCC(CCCC)CCCCCC` (centres unmarked) [Compound 22, 2-Hexyldecyl 3-(8-((2-butyloctyl)oxy)-N-(3-(dimethylamino)propyl)-8-oxooctanamido)-dodecanoate], in data set [1] (Table 9), the “Luc Activity” value is on record as 4.71E+07 pg/g liver. Besides, in data set [2] (Table 2), the “Final Product % EE” value is reported as 98%, the “Final Product PDI” value is reported as “(0.04)” and the “Final Product Z-avg” value was found to be 74 nm.
For `CCCCCCCCCCC(CCCC(=O)OCC(CCCCCC)CCCCCCCC)N(CCCN(C)C)C(=O)CCCCCCC(=O)OCC(CCCC)CCCCCC` (centres unmarked) [Compound 25, 2-Hexyldecyl 5-(8-((2-butyloctyl)oxy)-N-(3-(dimethylamino)propyl)-8-oxooctanamido)-pentadecanoate] the same measures were 7.76E+06 pg/g liver, 99%, “(0.03)” and 78 nm.
As to `CCCCCCCCCCC(CCCCCC(=O)OCCCCC(CCCCCCCC)CCCCCCCC)N(CCCN(C)C)C(=O)CCCCCCC(=O)OC(CC)CCCCCCCC` (centres unmarked) [Compound 27, 5-Octyltridecyl 7-(N-(3-(dimethylamino)propyl)-8-oxo-8-(undecan-3-yloxy)octanamido)-heptadecanoate], the “Luc Activity” value in data set [1] (Table 11) came to 9.17E+06 pg/g liver. For the same molecule, in data set [2] (Table 4), the “Final Product % EE” value turned out to be 98%, the “Final Product PDI” value came out at 0.04 and the “Final Product Z-avg” value is 86 nm.
For `CCCCCCCCCCC(CCCCCC(=O)OCCCCC(CCCCCCCC)CCCCCCCC)N(CCN(C)C)C(=O)CCCCCCC(=O)OC(CC)CCCCCCCC` (centres unmarked) [Compound 28, 5-Octyltridecyl 7-(N-(2-(dimethylamino)ethyl)-8-oxo-8-(undecan-3-yloxy)octanamido)-heptadecanoate], in that order: 6.50E+06 pg/g liver, 95%, 0.20 and 90 nm.
With `CCCCCCCCCCC(CCCCCC(=O)OCC(CCCCCC)CCCCCCCC)N(CCCN(C)C)C(=O)CCCCCCC(=O)OCC(CCCC)CCCCCC` (centres unmarked) [Compound 29, 2-Hexyldecyl 7-(8-((2-butyloctyl)oxy)-N-(3-(dimethylamino)propyl)-8-oxooctanamido)-heptadecanoate], in data set [1] (Table 12), the “Luc Activity” value was 6.74E+07 pg/g liver. In data set [2] (Table 5), the “Final Product % EE” value was 98%, the “Final Product PDI” value was 0.02 and the “Final Product Z-avg” value worked out at 80 nm.
On to `CCCCCCCCCCC(CCCCCCC(=O)OCCC(CCCCC)CCCCC)N(CCCN(C)C)C(=O)CCCCCCC(=O)OCCC(CCCCC)CCCCC` (centres unmarked) [Compound 30], for which the “Luc Activity” value in data set [1] (Table 12) is reported as 3.76E+07 pg/g liver.
Turning to `CCCCCCCCCCC(CCCCCCC(=O)OC(CCCCCCCC)CCCCCCCC)N(CCCN(C)C)C(=O)CCCCCCC(=O)OCCC(CCCCC)CCCCC` (centres unmarked) [Compound 31], the “Luc Activity” value in data set [1] (Table 12) amounted to 1.47E+07 pg/g liver.
In the case of `CCCCC/C=C\CCCC(CCC/C=C\CCCCC)CN(C(=O)CCCCN(C)C)C(CCCCCCCCCC)CCCCCCC(=O)OCCCCCCCCCC` (centres unmarked) [Compound 35], in data set [1] (Table 11), the “Luc Activity” value is given as 1.40E+07 pg/g liver.
For the molecule `CCCCC/C=C\CCCC(CCC/C=C\CCCCC)CN(C(=O)CCCN(C)C)C(CCCCCCCCCC)CCCCCCC(=O)OCCCCCCCCCC` (centres unmarked) [Compound 36], the “Luc Activity” value in data set [1] (Table 11) amounted to 5.54E+06 pg/g liver.
`CCCCC/C=C\CCCC(CCC/C=C\CCCCC)CN(C(=O)CCN(C)C)C(CCCCCCCCCC)CCCCCCC(=O)OCCCCCCCCCC` (centres unmarked) [Compound 37]: the “Luc Activity” value in data set [1] (Table 11) came out at 3.01E+06 pg/g liver.
For the molecule `CCCCCCCCCC(=O)N(CCCN(C)C)C(CCCCCCCCC)CCOC(=O)C(F)(CCCCCC)CCCCCCCC` (centres unmarked) [Compound 40, 3-{N-[3-(dimethylamino)propyl]decanamido}dodecyl 2-fluoro-2-hexyldecanoate], the “Luc Activity” value in data set [1] (Table 9) worked out at 3.57E+07 pg/g liver. Moreover, in data set [2] (Table 2), the “Final Product % EE” value amounted to 98%, the “Final Product PDI” value is “(0.05)” and the “Final Product Z-avg” value is given as 87 nm.
As for `CCCCCCCCCCC(CCCCCCC(=O)OCC(CCCCCC)CCCCCCCC)N(OCCCN(C)C)C(=O)CCCCCCC(=O)OCC(CCCC)CCCCCC` (centres unmarked) [Compound 41, 2-hexyldecyl 8-{8-[(2-butyloctyl)oxy]-N-[3-(dimethylamino)propoxy]-8-oxooctanamido}octadecanoate], the “Luc Activity” value in data set [1] (Table 12) stood at 6.69E+06 pg/g liver. In data set [2] (Table 5), the “Final Product % EE” value was found to be 94%, the “Final Product PDI” value stood at 0.04 and the “Final Product Z-avg” value is given as 70 nm.
For `CCCCCCCCCCC(CCCCCC(=O)OCC(CCCCCC)CCCCCCCC)N(OCCCN(C)C)C(=O)CCCCCCCCC` (centres unmarked) [Compound 42, 2-hexyldecyl 7-{N-[3-(dimethylamino)propoxy]decanamido}heptadecanoate], in that order: 1.14E+07 pg/g liver, 97%, 0.10 and 65 nm.
Take `CCCCCCCCCCON(C(=O)CCCN(C)C)C(CCCCCCCCCC)CCCCCC(=O)OCC(CCCCCC)CCCCCCCC` (centres unmarked) [Compound 44, 2-Hexyldecyl 7-(N-(decyloxy)-4-(dimethylamino)butanamido)heptadecanoate]: the “Luc Activity” value in data set [1] (Table 12) is given as 6.17E+07 pg/g liver. In addition, in data set [2] (Table 5), the “Final Product % EE” value came to 98%, the “Final Product PDI” value came out at 0.06 and the “Final Product Z-avg” value was determined as 68 nm.
Turning to `CCCCCCCCCCC(CCCCCCC(=O)OCC(CCCCCC)CCCCCCCC)N(CCCCCCCC(=O)OCC(CCCCCC)CCCCCCCC)C(=O)CCCN(C)C` (centres unmarked) [Compound 63], the “Luc Activity” value in data set [1] (Table 12) was 6.23E+07 pg/g liver.
Still for that read-out and setting: for `CCCCCCCCCCC(CCCCCCC(=O)OCC(CCCCCC)CCCCCCCC)N(CCCCCCCC(=O)OCC(CCCCCC)CCCCCCCC)C(=O)CCCCN(C)C` (centres unmarked) [Compound 64] the value was 9.76E+07 pg/g liver; for `CCCCCCCCCCC(CCCCCCC(=O)OC(CCCCCCCC)CCCCCCCC)N(CCCCCCCC(=O)OCCC(CCCCC)CCCCC)C(=O)CCCN(C)C` (centres unmarked) [Compound 68], 4.36E+07 pg/g liver.
Turning to `CCCCCCCCCCC(CCCCCCC(=O)OCC(CCCCCC)CCCCCCCC)N(CCCN(C)C)C(=O)CCCCCCC(=O)OCC(CCCC)CCCCCC` (centres unmarked) [Compound 78], the “Luc Activity” value in data set [1] (Table 11) came to 5.30E+07 pg/g liver.
On the same count and under the same terms, for `CCCCCCCCCCOC(=O)CCCCCCC(=O)N(CCCN(C)C)C(CCCCCCCCCC)CCCCCCC(=O)OCC(CCCCCC)CCCCCCCC` (centres unmarked) [Compound 79] the value was 1.05E+07 pg/g liver.
Regarding `CCCCCCCCCCC(CCCCCCC(=O)OCC(CCCCCC)CCCCCCCC)N(CCCN(C)C)C(=O)CCCCCCCC(=O)OCC(CCCC)CCCCCC` (centres unmarked) [Compound 80], the “Luc Activity” value in data set [1] (Table 12) stood at 3.28E+07 pg/g liver.
For the molecule `CCCCCCCCCCC(CCCCCCC(=O)OCC(CCCCCC)CCCCCCCC)N(CCCN(C)C)C(=O)CCCCCCCCC(=O)OCC(CCCC)CCCCCC` (centres unmarked) [Compound 81], the “Luc Activity” value in data set [1] (Table 12) was 3.47E+07 pg/g liver.
With `CCCCCCCCCCC(CCCCCCC(=O)OCC(CCCCCC)CCCCCCCC)N(CCCN(C)C)C(=O)CCCCCCC(=O)OCCC(CCCCC)CCCCC` (centres unmarked) [Compound 82], the “Luc Activity” value in data set [1] (Table 12) turned out to be 1.23E+07 pg/g liver.
Same read-out and setting: for `CCCCCCCCCCC(CCCCCCC(=O)OCC(CCCCCC)CCCCCCCC)N(CCCN(C)C)C(=O)CCCCCCC(=O)OCc1cc(CCCCCC)cc(CCCCCC)c1` (centres unmarked) [Compound 83] the value was 4.59E+07 pg/g liver.
